The subject of series [1] is Liver microsomes. Kind of series: Drug activation in NADPH-fortified rat liver microsomes assessed as rate of NMPA formation. On the set-up: species or system Microsome.
Series [2] in a line: Stability assessed as half life in rat plasma. The class given is ADME, cell-free.
The next series deals with Hepatocyte. Kind of series: Drug activation in rat hepatocytes by measuring intracellular NMPA levels at 100 uM after 1 hr. The class given is cell-based.
Series [3] can be described thus: Stability assessed as half life in Krebs bicarbonate buffer at 37degC. The class given is physicochemical.
The test system of another series is Nucleic Acid. Kind of series: Ratio of drug activation in NADPH-fortified human liver microsomes to NADPH-fortified rat liver microsomes assessed as rate of NMPA formation. On the set-up: species or system Microsome. (In general: Liver microsomes are a subcellular fraction often used to study metabolism.)
Series [4] deals with Liver microsomes. Nature of the series: Drug activation in NADPH-fortified human liver microsomes assessed as rate of NMPA formation. On the set-up: species or system Microsome.
The next series relates to Liver. Nature of the series: Drug activation in NADPH-fortified rat liver without microsomes assessed as rate of NMPA formation. On the set-up: species or system Microsome.
In series [5] the test system is Liver microsomes. Kind of series: Drug activation in human liver microsomes assessed as rate of NMPA formation. Details: species or system Microsome.

The term half-life denotes the time needed for the level to fall by half in the phase considered. Take `COc1ccc(COP(=O)(Cc2cccc3ccccc23)OCc2ccc(OC)c(F)c2)cc1F`: the figures for the Activity with Liver microsomes [1], with Hepatocyte and in the series on Liver microsomes [4] were 2.94 pmol/min/mg, 125 nmol/g and 5.23 pmol/min/mg, respectively. The half-life in series [2] and in series [3] was more than 2 h each time. In addition, the Ratio in the series with Nucleic Acid was determined as 2.

For the compound `COc1ccc(COP(=O)(Cc2cccc3ccccc23)OCc2ccc(OC)c(Cl)c2)cc1Cl`, the Activity stood at 1.58 pmol/min/mg in the series with Liver microsomes [1], 130 nmol/g in the series with Hepatocyte and 4.52 pmol/min/mg in the series on Liver microsomes [4]. The half-life in series [2] and in series [3] was more than 2 h in each case. The Ratio in the series with Nucleic Acid was 2.

The compound `COc1cc(COP(=O)(Cc2cccc3ccccc23)OCc2cc(Br)c(OC)c(Br)c2)cc(OC)c1OC` (stereo not given) displayed an Activity in the series with Hepatocyte of 26 nmol/g.

Take `COc1ccc(COP(=O)(Cc2cccc3ccccc23)OCc2ccc(OC)c(C#N)c2)cc1C#N`: in series [2], the half-life was more than 2 h. The same compound showed an Activity in the series with Hepatocyte of 73 nmol/g.

`COc1ccc(COP(=O)(Cc2cccc3ccccc23)OCc2ccc(OC)c(C(F)(F)F)c2)cc1C(F)(F)F`: in series [2], the half-life was more than 2 h. The compound also gave an Activity with Hepatocyte of 46 nmol/g.

`COc1ccc(COP(=O)(Cc2cccc3ccccc23)OCc2ccc(OC)c(Br)c2)cc1Br`: the Activity in the series with Liver is given as 0 pmol/min/mg; in the series on Liver microsomes [1], 2.76 pmol/min/mg; in the series with Liver microsomes [5], 0 pmol/min/mg; in the series on Hepatocyte, 76 nmol/g; in the series on Liver microsomes [4], 4.85 pmol/min/mg. The half-life in series [2] and in series [3] was more than 2 h each time. Further, the Ratio in the series on Nucleic Acid turned out to be 2.

In the case of `CCOc1ccc(COP(=O)(Cc2cccc3ccccc23)OCc2ccc(OCC)c(Cl)c2)cc1Cl`, in series [2], the half-life is more than 2 h. In addition, the Activity with Hepatocyte turned out to be 54 nmol/g.

In the case of `CCCOc1ccc(COP(=O)(Cc2cccc3ccccc23)OCc2ccc(OCCC)c(Cl)c2)cc1Cl`, the Activity in the series on Hepatocyte is reported as 0 nmol/g.

On to `COc1ccc(COP(=O)(Cc2cccc3ccccc23)OCc2ccc(OC)c(C(C)=O)c2)cc1C(C)=O`, for which, in the series on Hepatocyte, the Activity turned out to be 0 nmol/g.

Compound `COc1c(Cl)cc(COP(=O)(Cc2cccc3ccccc23)OCc2cc(Cl)c(OC)c(Cl)c2)cc1Cl` gave an Activity in the series with Hepatocyte of 0 nmol/g.

Take `CCOP(=O)(Cc1cccc2ccccc12)OCC`: the Activity with Hepatocyte turned out to be 0 nmol/g.

As for `COc1ccc(COP(=O)(Cc2cccc3ccccc23)OCc2ccc(OC)cc2)cc1`, the half-life in series [2] and in series [3] was 0.15 h throughout. Also, the Activity with Hepatocyte is 91 nmol/g.

For `COc1ccc(COP(=O)(Cc2cccc3ccccc23)OCc2ccc(OC)c([N+](=O)[O-])c2)cc1[N+](=O)[O-]`, the half-life in series [2] was more than 2 h. This compound registered an Activity with Hepatocyte of 60 nmol/g.

Take `O=P(O)(O)Cc1cccc2ccccc12`: the Activity in the series with Hepatocyte came to 0 nmol/g.

In the series with Hepatocyte, `COc1c(Br)cc(COP(=O)(Cc2cccc3ccccc23)OCc2cc(Br)c(OC)c(Br)c2)cc1Br` yielded an Activity of 0 nmol/g.

Take `CC(C)C(=O)OCOP(=O)(Cc1cccc2ccccc12)OCOC(=O)C(C)C`: the half-life in series [2] came out at 0.00833 h. For the same compound, the Activity in the series with Hepatocyte was 85 nmol/g.

For the origin of these results see ChEMBL document CHEMBL1139953, “Bis[(para-methoxy)benzyl] phosphonate prodrugs with improved stability and enhanced cell penetration” (Bioorg Med Chem Lett, 2007).
